Laboratory results published in PubChem BioAssay AID192 (DTP/NCI, 2004).
Values joined by “and” are separate entries in the source; they are usually repeats but may differ in a detail not shown here. Equal entries are not always repeated. Inconclusive results and toxic doses are left out. The calls were made as follows: active = survival T/C of 150% or more; inactive = T/C below 125% in these data.

System: BDF1 mice, B16 melanoma ip, median survival T/C
Experiment: NCI In Vivo Anticancer Drug Screen. Data for tumor model B16 Melanoma (intraperitoneal) in B6D2F1 (BDF1) mice
Settings: endpoint: median survival time, higher = longer survival
Summary of the method: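 Survival or tumor size is measured after treatment of tumor-bearing mice and normalised to the vehicle-treated control group.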

[1] = dose: 0.75 mg/kg/injection, schedule: Q01DX009 (ip), vehicle: Klucel (hydroxypropylcellulose) (HPC)
[2] = dose: 100.0 mg/kg/injection, schedule: Q01DX009 (ip), vehicle: Klucel (hydroxypropylcellulose) (HPC)
[3] = dose: 100.0 mg/kg/injection, schedule: Q01DX009 (ip), vehicle: saline with Tween-80
[4] = dose: 200.0 mg/kg/injection, schedule: Q01DX009 (ip), vehicle: Klucel (hydroxypropylcellulose) (HPC)
[5] = dose: 200.0 mg/kg/injection, schedule: Q01DX009 (ip), vehicle: saline with Tween-80
[6] = dose: 400.0 mg/kg/injection, schedule: Q01DX009 (ip), vehicle: Klucel (hydroxypropylcellulose) (HPC)
[7] = dose: 100.0 mg/kg/injection, schedule: Q01DX009 (ip), vehicle: saline
[8] = dose: 200.0 mg/kg/injection, schedule: Q01DX009 (ip), vehicle: saline
[9] = dose: 400.0 mg/kg/injection, schedule: Q01DX009 (ip), vehicle: saline
[10] = dose: 12.5 mg/kg/injection, schedule: Q01DX009 (ip), vehicle: Klucel (hydroxypropylcellulose) (HPC)

Measured: T/C

O=[N+]([O-])/C=C/c1ccc([N+](=O)[O-])cc1Cl
inactive: dose: 0.18 mg/kg/injection, schedule: Q01DX009 (ip), vehicle: Klucel (hydroxypropylcellulose) (HPC) 111 % of control | dose: 0.37 mg/kg/injection, schedule: Q01DX009 (ip), vehicle: Klucel (hydroxypropylcellulose) (HPC) 96 % of control | [1] 87 % of control and 90 % of control

COc1ccc(NC(=S)Nc2ccccn2)cc1
inactive: [2] 107 % of control | [3] 100 % of control | [4] 100 % of control | [5] 100 % of control | [6] 92 % of control

CC(=O)OCc1cccnc1
inactive: dose: 50.0 mg/kg/injection, schedule: Q01DX009 (ip), vehicle: saline 97 % of control | [7] 101 % of control | [8] 106 % of control | [9] 107 % of control

CC(C)=CC(=O)CC(O)(C(F)(F)F)C(F)(F)Cl (centres undefined)
inactive: dose: 6.25 mg/kg/injection, schedule: Q01DX009 (ip), vehicle: saline with Tween-80 97 % of control | dose: 6.25 mg/kg/injection, schedule: Q04DX003 (ip), vehicle: saline 100 % of control | dose: 12.5 mg/kg/injection, schedule: Q01DX009 (ip), vehicle: saline with Tween-80 90 % of control | dose: 12.5 mg/kg/injection, schedule: Q04DX003 (ip), vehicle: saline 89 % of control | dose: 25.0 mg/kg/injection, schedule: Q01DX009 (ip), vehicle: saline with Tween-80 92 % of control | dose: 25.0 mg/kg/injection, schedule: Q04DX003 (ip), vehicle: saline 89 % of control

CC(=O)CC(C)=O.CC(=O)CC(C)=O.CC(=O)CC(C)=O.[Cr]
inactive: dose: 50.0 mg/kg/injection, schedule: Q01DX009 (ip), vehicle: Klucel (hydroxypropylcellulose) (HPC) 96 % of control | [2] 97 % of control | [4] 90 % of control

CCOC(=O)C(=CN1CCCCCC1)C(=O)OCC
inactive: [3] 102 % of control | dose: 100.0 mg/kg/injection, schedule: Q04DX003 (ip), vehicle: saline with Tween-80 97 % of control | [5] 101 % of control | dose: 200.0 mg/kg/injection, schedule: Q04DX003 (ip), vehicle: saline with Tween-80 95 % of control | dose: 400.0 mg/kg/injection, schedule: Q04DX003 (ip), vehicle: saline with Tween-80 92 % of control

Nc1ncnc2nc[nH]c12
inactive: dose: 32.0 mg/kg/injection, schedule: Q01DX009 (ip), vehicle: Klucel (hydroxypropylcellulose) (HPC) 97 % of control | dose: 64.0 mg/kg/injection, schedule: Q01DX009 (ip), vehicle: Klucel (hydroxypropylcellulose) (HPC) 98 % of control | dose: 64.0 mg/kg/injection, schedule: Q01DX009 (ip), vehicle: saline with Tween-80 98 % of control | dose: 128.0 mg/kg/injection, schedule: Q01DX009 (ip), vehicle: Klucel (hydroxypropylcellulose) (HPC) 89 % of control

CC(=O)CC(=O)Nc1cccc(C)c1
inactive: [2] 105 % of control | [4] 100 % of control | [6] 92 % of control

O=c1cc2oc3c(O)c(O)ccc3c3c4ccccc4c(=O)c(c1)c23
inactive: dose: 12.5 mg/kg/injection, schedule: Q01DX009 (ip), vehicle: saline 103 % of control | dose: 25.0 mg/kg/injection, schedule: Q01DX009 (ip), vehicle: saline 90 % of control

CCOc1ccc(C(C)c2cc3c(cc2OC)OCO3)cc1 (centres undefined)
inactive: dose: 12.5 mg/kg/injection, schedule: Q01DX009 (ip), vehicle: distilled water + Tween-80 114 % of control | dose: 25.0 mg/kg/injection, schedule: Q01DX009 (ip), vehicle: distilled water + Tween-80 113 % of control

CC(=O)O[C@@H]1CO[C@H]2O[C@H]3[C@@H](C(C=O)=C[C@H](O)[C@@H]4C5=C(C(C)C)CC[C@]5(C)CC[C@@]34C)[C@@]2(O)C1=O
inactive: [1] 94 % of control | dose: 3.12 mg/kg/injection, schedule: Q01DX009 (ip), vehicle: Klucel (hydroxypropylcellulose) (HPC) 100 % of control | dose: 6.25 mg/kg/injection, schedule: Q01DX009 (ip), vehicle: Klucel (hydroxypropylcellulose) (HPC) 89 % of control | [10] 86 % of control

S=C(SSSSC(=S)N1CCCCC1)N1CCCCC1
inactive: [2] 95 % of control | [4] 90 % of control | [6] 107 % of control

O=C1NC(=O)C([N+](=O)[O-])=C(O)C1=O
inactive: dose: 75.0 mg/kg/injection, schedule: Q04DX003 (ip), vehicle: other 105 % of control | dose: 150.0 mg/kg/injection, schedule: Q04DX003 (ip), vehicle: other 95 % of control

CC(=O)C1=C(C)NC(C)=C(C(C)=O)C1C
inactive: dose: 50.0 mg/kg/injection, schedule: Q01DX009 (ip), vehicle: saline with Tween-80 100 % of control | [3] 95 % of control | [5] 102 % of control

CC(=O)CC(=O)NCc1cccc(C)n1
inactive: [7] 106 % of control | [8] 111 % of control | [9] 112 % of control

O=C(O)/C=C\C(=O)Nc1ccccn1
inactive: dose: 5.0 mg/kg/injection, schedule: Q01DX009 (ip), vehicle: saline 100 % of control | dose: 10.0 mg/kg/injection, schedule: Q01DX009 (ip), vehicle: saline 100 % of control | dose: 30.0 mg/kg/injection, schedule: Q01DX009 (ip), vehicle: saline 112 % of control | dose: 60.0 mg/kg/injection, schedule: Q01DX009 (ip), vehicle: saline 109 % of control

COc1cc([C@@H]2c3cc4c(c(O)c3C[C@H]3COC(=O)[C@@H]32)OCO4)cc(OC)c1O
inactive: dose: 0.12 mg/kg/injection, schedule: Q01DX009 (ip), vehicle: saline 97 % of control | dose: 0.12 mg/kg/injection, schedule: Q01DX009 (ip), vehicle: suspension in saline 100 % of control | dose: 0.25 mg/kg/injection, schedule: Q01DX009 (ip), vehicle: saline 97 % of control | dose: 0.25 mg/kg/injection, schedule: Q01DX009 (ip), vehicle: suspension in saline 96 % of control | dose: 0.5 mg/kg/injection, schedule: Q01DX009 (ip), vehicle: saline 107 % of control | dose: 0.5 mg/kg/injection, schedule: Q01DX009 (ip), vehicle: suspension in saline 105 % of control | dose: 1.0 mg/kg/injection, schedule: Q01DX009 (ip), vehicle: saline 95 % of control

CCOC(=O)/C=C(\CBr)OC
inactive: [10] 105 % of control | dose: 25.0 mg/kg/injection, schedule: Q01DX009 (ip), vehicle: Klucel (hydroxypropylcellulose) (HPC) 93 % of control

O=C(O)O.O=C(O)O.O=C(O)O.[Co]
inactive: dose: 25.0 mg/kg/injection, schedule: Q04DX003 (ip), vehicle: saline with Tween-80 88 % of control | dose: 50.0 mg/kg/injection, schedule: Q04DX003 (ip), vehicle: saline with Tween-80 91 % of control

C[n+]1cc2c3ccccc3c(N)cc2c2ccccc21
inactive: dose: 3.13 mg/kg/injection, schedule: Q01DX009 (ip), vehicle: saline 106 % of control

CC1=C2CC(C)(C)/C=C\C(=O)/C(C)=C\C3=C[C@H](C)C[C@]3(O2)C1=O
inactive: dose: 1.5 mg/kg/injection, schedule: Q01DX009 (ip), vehicle: saline 93 % of control | dose: 3.0 mg/kg/injection, schedule: Q01DX009 (ip), vehicle: saline 100 % of control | dose: 6.0 mg/kg/injection, schedule: Q01DX009 (ip), vehicle: saline 100 % of control | dose: 12.0 mg/kg/injection, schedule: Q01DX009 (ip), vehicle: saline 106 % of control | dose: 16.0 mg/kg/injection, schedule: Q01DX009 (ip), vehicle: saline with Tween-80 97 % of control | dose: 32.0 mg/kg/injection, schedule: Q01DX009 (ip), vehicle: saline with Tween-80 92 % of control
